Data taken from article PMC8308639, “Synthesis and Human Carbonic Anhydrase I, II, IX, and XII Inhibition Studies of Sulphonamides Incorporating Mono-, Bi- and Tricyclic Imide Moieties” (Pharmaceuticals, 2021).
Counter-ions that a name gives are not always drawn. Like-named read-outs stand apart in the source and are kept apart here.

How the values were obtained:
[1] = Qualitative solubility; assay type: physicochemical
[2] = target: hCA I (Homo sapiens, UniProt P00915); test: CA-catalysed CO2 hydration stopped-flow inhibition assay, hCA I
Chain of hCA I (P00915 whole entry): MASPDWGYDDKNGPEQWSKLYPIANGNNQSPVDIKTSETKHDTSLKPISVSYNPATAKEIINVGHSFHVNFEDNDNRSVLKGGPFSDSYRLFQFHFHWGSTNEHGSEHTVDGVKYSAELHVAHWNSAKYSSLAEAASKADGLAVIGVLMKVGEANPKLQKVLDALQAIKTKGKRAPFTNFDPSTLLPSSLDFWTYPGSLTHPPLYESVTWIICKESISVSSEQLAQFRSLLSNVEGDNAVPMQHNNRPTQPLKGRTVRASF

[3] = target: hCA II (Homo sapiens, UniProt P00918); test: CA-catalysed CO2 hydration stopped-flow inhibition assay, hCA II
[4] = target: hCA IX (Homo sapiens, UniProt Q16790); test: CA-catalysed CO2 hydration stopped-flow inhibition assay, hCA IX; conditions: for Ki: stopped-flow CO2 hydration, mean ± standard error, three assays; for Selectivity Ratio A = hCA II/IX: ratio of Ki hCA II / Ki hCA IX
[5] = target: hCA XII (Homo sapiens, UniProt O43570); test: CA-catalysed CO2 hydration stopped-flow inhibition assay, hCA XII; conditions: for Ki: stopped-flow CO2 hydration, mean ± standard error, three assays; for Selectivity Ratio B = hCA II/XII: ratio of Ki hCA II / Ki hCA XII
Chain of hCA XII (O43570 25-354): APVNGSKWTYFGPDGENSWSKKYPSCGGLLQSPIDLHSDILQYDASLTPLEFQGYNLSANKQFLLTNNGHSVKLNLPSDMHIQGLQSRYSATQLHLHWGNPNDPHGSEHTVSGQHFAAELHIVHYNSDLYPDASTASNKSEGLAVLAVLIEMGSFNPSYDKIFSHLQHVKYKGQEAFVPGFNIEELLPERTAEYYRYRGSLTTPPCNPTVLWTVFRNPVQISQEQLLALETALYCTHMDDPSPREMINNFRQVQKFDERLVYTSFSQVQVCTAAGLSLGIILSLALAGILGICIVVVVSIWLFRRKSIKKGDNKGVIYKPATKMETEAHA

[6] = Ki (nM) hCA II, mean ± standard error, three assays

| melting point [°C] | solubility in water [1] | Ki ([4]; Ki (nM) hCA IX) [nM] | Ki ([5]; Ki (nM) hCA XII) [nM] | Structure (SMILES) | also measured |
| --- | --- | --- | --- | --- | --- |
| 277 | – | – | – | NS(=O)(=O)c1ccc(N2C(=O)c3cccc4c(S(=O)(=O)O)ccc(c34)C2=O)cc1 (as salt: potassium) [Compound 1, 4-(4-sulfo-1,8-napthalic-1,3-dioxopyridine) potassium benzenesulphonamide] | – |
| – | fully soluble | – | – | NS(=O)(=O)c1ccc(N2C(=O)c3cccc4c(S(=O)(=O)O)ccc(c34)C2=O)cc1 [Compound 1, 4-(4-sulfo-1,8-napthalic-1,3-dioxopyridine) potassium benzenesulphonamide] | Ki ([2]; read-out: Ki (nM) hCA I, stopped-flow CO2 hydration, mean ± standard error, three assays): 49 ± 3.2 nM; Ki ([3]; read-out: Ki (nM) hCA II, mean ± standard error, three assays): 13 ± 0.9 nM; Ki ([4]; read-out: Ki (nM) hCA IX): 7770 ± 145 nM |
| 210 | insoluble | 7420 ± 348 | 69 ± 4.5 | NS(=O)(=O)c1ccc(CCN2C(=O)C=CC2=O)cc1 [Compound 2, 4-(2-(2,5-dioxo-2H-pyrrol-1(5H)-yl)ethyl)benzenesulphonamide] | – |
| 302.2 | fully soluble | 933 ± 56 | 80 ± 7 | NS(=O)(=O)c1ccc2sc(N3C(=O)c4c(Cl)c(Cl)c(Cl)c(Cl)c4C3=O)nc2c1 [Compound 3, 2-(4,5,6,7-tetrachloro-1,3-dioxoisoindolin-2-yl) benzo[d]thiazole-5-sulphonamide] | Ki [2]: 258 ± 12 nM; Selectivity Ratio A = hCA II/IX [4]: 0.795 |
| – | insoluble | 4030 ± 237 | 87 ± 6 | NS(=O)(=O)c1ccc2sc(N3C(=O)c4c(Br)c(Br)c(Br)c(Br)c4C3=O)nc2c1 [Compound 4, 2-(4,5,6,7-Tetrabromo-1,3-dioxoisoindolin-2-yl) Benzo[d]Thiazole-5-Sulphonamide] | Ki [2]: 463 ± 29 nM; Ki [3, 6]: 44 ± 1.9 nM; Selectivity Ratio A = hCA II/IX [4]: 0.011; Selectivity Ratio B = hCA II/XII [5]: 0.506 |
| 232 | insoluble | 4900 ± 300 | 75 ± 4 | NS(=O)(=O)c1ccc(N2C(=O)c3ccc([N+](=O)[O-])cc3C2=O)c(F)c1 [Compound 5, 3-fluoro-4-(5-nitro-1,3-dioxoisoindolin-2-yl) benzenesulphonamide] | Ki [2]: 400 ± 31 nM; Ki [3, 6]: 4.6 ± 0.3 nM; Selectivity Ratio B = hCA II/XII [5]: 0.061 |
| – | insoluble | – | – | NS(=O)(=O)c1ccc(N2C(=O)c3c(Cl)c(Cl)c(Cl)c(Cl)c3C2=O)cc1 [Compound 6, 4-(4,5,6,7-tetrachloro-1,3-dioxoisoindolin-2-yl) benzenesulphonamide] | – |
| – | insoluble | 103 ± 5 | – | NS(=O)(=O)c1ccc(CN2C(=O)c3c(Cl)c(Cl)c(Cl)c(Cl)c3C2=O)cc1 [Compound 7, 4-((4,5,6,7-Tetrachloro-1,3-dioxoisoindolin-2-yl) Methyl) Benzenesulphonamide] | – |
| 286 | insoluble | – | 226 ± 13 | NS(=O)(=O)c1ccc(CCN2C(=O)c3c(Cl)c(Cl)c(Cl)c(Cl)c3C2=O)cc1 [Compound 8, 4-(2-(4,5,6,7-tetrachloro-1,3-dioxoisoindolin-2-yl)ethyl)benzenesulphonamide] | – |
| 308 | insoluble | 498 ± 34 | 316 ± 28 | NS(=O)(=O)c1cccc(N2C(=O)c3c(Cl)c(Cl)c(Cl)c(Cl)c3C2=O)c1 [Compound 9, 3-(4,5,6,7-tetrachloro-1,3-dioxoisoindolin-2-yl) benzenesulphonamide] | – |
| 313 | insoluble | 559 ± 26 | 309 ± 24 | NS(=O)(=O)c1ccccc1N1C(=O)c2c(Cl)c(Cl)c(Cl)c(Cl)c2C1=O [Compound 10, 2-(4,5,6,7-tetrachloro-1,3-dioxoisoindolin-2-yl) benzenesulphonamide] | – |
| 278 | insoluble | 88 ± 7 | 14 ± 1 | NS(=O)(=O)c1ccc(N2C(=O)c3c(Cl)c(Cl)c(Cl)c(Cl)c3C2=O)c(F)c1 [Compound 11, 3-fluoro-4-(4,5,6,7-tetrachloro-1,3-dioxoisoindolin-2-yl) benzenesulphonamide] | – |
| 303 | insoluble | 49 ± 0.4 | 22 ± 1.7 | NS(=O)(=O)c1ccc(N2C(=O)c3c(Cl)c(Cl)c(Cl)c(Cl)c3C2=O)c(Cl)c1 [Compound 12, 3-chloro-4-(4,5,6,7-tetrachloro-1,3-dioxoisoindolin-2-yl)benzenesulphonamide] | – |
| 265 | insoluble | 40 ± 1.5 | 99 ± 3.5 | NS(=O)(=O)c1ccc(N2C(=O)c3c(Cl)c(Cl)c(Cl)c(Cl)c3C2=O)c(Br)c1 [Compound 13, 3-bromo-4-(4,5,6,7-tetrachloro-1,3-dioxoisoindolin-2-yl) benzenesulphonamide] | – |
| – | – | – | – | NS(=O)(=O)c1ccc(S(=O)(=O)Nc2cccc3c(Cl)c[nH]c23)cc1 [IND, Indisulam, reference compound] | Ki ([5]; read-out: Ki (nM) hCA XII): 3.4 ± 0.2 nM |
